Type in all cases: in vivo
Assay [1] has as its system Ctenocephalides felis. As to the kind of experiment: Ctenocephalides felis in vitro contact test with adult cat fleas. Particulars: application rate 5 μg/cm^2 (=500 g/ha), after 48 h. On the procedure: For the coating of the test tubes, 9 mg of active ingredient are first dissolved in 1 ml of acetone p.a. and then diluted to the desired concentration with acetone p.a. 250 μl of the solution are distributed homogeneously on the inner walls and the base of a 25 ml glass tube by turning and rocking on an orbital shaker (rocking rotation at 30 rpm for 2 h). With 900 ppm of active ingredient solution and internal surface area 44.7 cm^2, given homogeneous distribution, an area-based dose of 5 μg/cm^2 is achieved.
After the solvent has evaporated off, the tubes are populated with 5-10 adult cat fleas (Ctenocephalides felis), sealed with a perforated plastic lid and incubated in a horizontal position at room temperature and ambient humidity. After 48 h, efficacy is determined. To this end, the tubes are stood upright and the fleas are knocked to the base of the tube. Fleas which remain motionless at the base or move in an uncoordinated manner are considered to be dead or moribund.
100% efficacy means that all the fleas were dead or moribund. 0% efficacy means that no fleas were harmed.

The test system of the next assay is Rhipicephalus sanguineus. As to the kind of experiment: Rhipicephalus sanguineus in vitro contact test with adult brown dog ticks. Particulars: application rate 5 μg/cm^2 (=500 g/ha), after 48 h. On the procedure:
For the coating of the test tubes, 9 mg of active ingredient are first dissolved in 1 ml of acetone p.a. and then diluted to the desired concentration with acetone p.a. 250 μl of the solution are distributed homogeneously on the inner walls and base of a 25 ml test tube by turning and rocking on an orbital shaker (rocking rotation at 30 rpm for 2 h). With 900 ppm active ingredient solution and internal surface 44.7 cm^2, given homogeneous distribution, an area-based dose of 5 μg/cm^2 is achieved.
After the solvent has evaporated off, the tubes are populated with 5-10 adult dog ticks (Rhipicephalus sanguineus), sealed with a perforated plastic lid and incubated in a horizontal position in the dark at room temperature and ambient humidity. After 48 h, efficacy is determined. To this end, the ticks are knocked to the floor of the tube and incubated on a hotplate at 45-50° C. for not more than 5 min. Ticks which remain motionless on the floor or move in such an uncoordinated manner that they are unable to deliberately avoid the heat by climbing upwards are considered to be dead or moribund.
100% efficacy means that all the ticks were dead or moribund. 0% efficacy means that none of the ticks had been harmed.

The test system of another assay is Boophilus microplus. As to the kind of experiment: Boophilus microplus injection test. Particulars: application rate 20 μg/animal, assessed after 7 days, engorged adult female cattle ticks. On the procedure: (§1) Solvent: dimethyl sulfoxide
To produce a suitable active ingredient formulation, 10 mg of active ingredient are mixed with 0.5 ml of solvent and the concentrate is diluted to the desired concentration with solvent.
1 μl of the active ingredient solution is injected into the abdomen of 5 engorged adult female cattle ticks (Boophilus microplus). The animals are transferred into dishes and kept in a climate-controlled room.
Efficacy is assessed after 7 days by laying of fertile eggs. Eggs which are not visibly fertile are stored in a climate-controlled cabinet until the larvae hatch after about 42 days. An efficacy of 100% means that none of the ticks has laid any fertile eggs; 0% means that all the eggs are fertile.

The test system of assay [2] is Ctenocephalides felis. The assay is described as follows: Ctenocephalides felis oral test. Particulars: application rate 100 ppm in citrated cattle blood, after 2 days, adult cat fleas. The procedure: as §1
To produce a suitable active ingredient formulation, 10 mg of active ingredient are mixed with 0.5 ml of dimethyl sulfoxide. Dilution with citrated cattle blood gives the desired concentration.
About 20 unfed adult cat fleas (Ctenocephalides felis) are placed into a chamber which is closed at the top and bottom with gauze. A metal cylinder whose bottom end is closed with parafilm is placed onto the chamber. The cylinder contains the blood/active ingredient formulation, which can be imbibed by the fleas through the parafilm membrane.
After 2 days, the kill in % is determined. 100% means that all of the fleas have been killed; 0% means that none of the fleas have been killed.

The next assay has as its system Musca domestica. As to the kind of experiment: Musca domestica test. Particulars: application rate 100 ppm, after 2 days, adult houseflies. The procedure:
as §1
(§2) To produce a suitable active ingredient formulation, 10 mg of active ingredient are mixed with 0.5 ml of dimethyl sulfoxide, and the concentrate is diluted with water to the desired concentration.
Vessels containing a sponge treated with sugar solution and the active ingredient formulation of the desired concentration are populated with 10 adult houseflies (Musca domestica).
After 2 days, the kill in % is determined. 100% means that all of the flies have been killed; 0% means that none of the flies have been killed.

The test system of assay [3] is Myzus persicae. As to the kind of experiment: Myzus persicae oral test. Particulars: 120 h, application rate 4 ppm, after 5 days, read-out: efficacy (aphids killed). The procedure:
To produce a suitable active ingredient formulation, 1 part by weight of active ingredient is dissolved with the stated parts by weight of solvent and made up to the desired concentration with water.
50 μl of the active ingredient preparation are transferred into microtitre plates and made up to a final volume of 200 μl with 150 μl of IPL41 insect medium (33%+15% sugar). Subselog Puently, the plates are sealed with parafilm, which a mixed population of green peach aphids (Myzus persicae) within a second microtitre plate is able to puncture and imbibe the solution.
(§3) After 5 days, the efficacy in % is determined. 100% means that all the aphids have been killed; 0% means that no aphids have been killed.

Assay [4] deals with Myzus persicae. As to the kind of experiment: Myzus persicae spray test. Particulars: foliar, 120 h, application rate 100 g/ha, after 5 days, Chinese cabbage leaf discs, read-out: efficacy (aphids killed). The procedure:
To produce a suitable active ingredient formulation, 1 part by weight of active ingredient is dissolved with the specified parts by weight of solvent and made up to the desired concentration with water containing an emulsifier concentration of 1000 ppm. To produce further test concentrations, the formulation is diluted with emulsifier-containing water.
Discs of Chinese cabbage leaves (Brassica pekinensis) infested by all stages of the green peach aphid (Myzus persicae) are sprayed with an active ingredient formulation of the desired concentration.
as §3

Another assay deals with Lucilia cuprina. As to the kind of experiment: Lucilia cuprina test. Particulars: application rate 100 ppm, after 2 days, L1 larvae. On the procedure: as §1, §2
About 20 L1 larvae of the Australian sheep blowfly (Lucilia cuprina) are transferred into a test vessel containing minced horsemeat and the active ingredient formulation of the desired concentration.
After 2 days, the kill in % is determined. 100% means that all the larvae have been killed; 0% means that no larvae have been killed.

In the case of `CCS(=O)(=O)c1c(-c2nc3cc(C(F)(F)F)ncc3n2C)nn2c1CC(C)CC2` (stereo not drawn) [Example I-05], the “efficacy (fleas dead or moribund)” value in the assay on Ctenocephalides felis [1] turned out to be 100%. The “efficacy (ticks dead or moribund)” value in the assay on Rhipicephalus sanguineus came out at 100%. Moreover, the “efficacy (no laying of fertile eggs)” value with Boophilus microplus is on record as 100%. Also, the “efficacy (kill in %)” value in the assay on Ctenocephalides felis [2] is on record as 95%; in the assay on Musca domestica it was 80%. Further, the pest or weed control at 4 ppm in the assay with Myzus persicae [3] was 100%. Further, in the assay on Myzus persicae [4], the pest or weed control at 100 g/ha was found to be 100%.

Regarding `CCS(=O)(=O)c1c(-c2nc3cc(C(F)(F)F)ncc3n2C)nn2c1CCCC2` [Example I-02], the “efficacy (kill in %)” value is 90% in the assay on Ctenocephalides felis [2], 100% in the assay with Lucilia cuprina and 80% in the assay with Musca domestica. Moreover, in the assay with Myzus persicae [3], the pest or weed control at 4 ppm was 100%. For the same compound, in the assay with Myzus persicae [4], the pest or weed control at 100 g/ha was found to be 90%.
